Laboratory results taken from ChEMBL document CHEMBL1146392, “Isolation of Diterpenoids of the Cladiellane Class from Gorgonians of the Genus Muricella” (J Nat Prod, 1997).
≈ marks a conversion by molar mass, not a printed value.

What was measured:
Artemia = experiment: Toxicity in brine shrimp; format: organism-based; details: in vivo
SK-MEL-2 = experiment: Cytotoxicity against human SK-MEL-2 cells; format: functional; details: read-out: ED50 (the source's name)
HCT-15 = experiment: Cytotoxicity against human HCT15 cells; format: functional; details: read-out: ED50 (the source's name)
A549 = experiment: Cytotoxicity against human A549 cells; format: functional; details: read-out: ED50 (the source's name)
SK-OV-3 = experiment: Cytotoxicity against human SKOV3 cells; format: functional; details: read-out: ED50 (the source's name)

Row | SMILES | LD50 (Artemia) [ppm] | further results
1 | C=C1CC[C@H](C(C)C)[C@@H]2[C@H]1[C@@H]1C/C(C)=C/CC[C@@](C)(OC(C)=O)[C@H]2O1 [CLADIELLIN] | 1.3 | –
2 | CC(=O)O[C@@H]1C=C(C)[C@H]2[C@@H]([C@H]1C(C)C)[C@@H]1O[C@H]2C/C(C)=C/CC[C@@]1(C)OC(C)=O [CALICOPHIRIN B] | 1 | –
3 | C=C1C[C@@H]2O[C@@H]([C@H]3[C@@H]2C(C)=C[C@@H](OC(C)=O)[C@@H]3C(C)(C)OC(C)=O)[C@](C)(OC(C)=O)CC[C@@H]1OC(C)=O [ASTROGORGIN] | 1.8 | –
4 | CC(=O)O[C@@H]1C=C(C)[C@H]2[C@@H]([C@H]1C(C)(C)OC(C)=O)[C@@H]1O[C@H]2C/C(C)=C/CC[C@@]1(C)OC(C)=O [OPHIRIN] | 8.7 | –
5 | CC(=O)O[C@]1(C)CC/C=C(\C)C[C@@H]2O[C@H]1[C@H]1[C@@H]2C(C)=CC[C@@H]1C(C)C | 0.3 | EC50 (SK-MEL-2): 11.6 µg/mL (≈ 33.5 µM); EC50 (HCT-15): 13.9 µg/mL (≈ 40.1 µM); EC50 (A549): 12.7 µg/mL (≈ 36.7 µM); EC50 (SK-OV-3): 21.3 µg/mL (≈ 61.5 µM)
6 | CC1=CC[C@H](C(C)C)[C@@H]2[C@H]1[C@@H]1C/C(C)=C/CC[C@@](C)(O)[C@H]2O1 | 39.2 | –
7 | CC1=C[C@@H](O)[C@H](C(C)(C)O)[C@@H]2[C@H]1[C@@H]1C/C(C)=C/CC[C@@](C)(O)[C@H]2O1 | 48 | –
